The target of the assay is T1, CDK2/Cyclin E complex (Homo sapiens, UniProt P24941).
T1 construct: purchased Eurofins 14-475
The experiment in a line: CDK2/Cyclin E fluorescence-based microfluidic mobility shift assay (CDK2 Biochemical Caliper Assay). As to conditions: read-out: Biochemical CDK2/CyclinE Caliper IC50. The method in brief: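 Wild-type CDK2/Cyclin E was preincubated with compound and ATP for 30 min at RT before the 5-FAM-QSPKKG peptide was added. Final concentrations were 0.1 nM enzyme, 2000 uM ATP, 1.5 uM peptide and 1% DMSO. After 20 hr at RT and EDTA stop, substrate conversion was read by microfluidic mobility shift over an 11-point, 3-fold dilution series.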
As for `c1cncc(O[C@@H]2CC[C@H](c3cc(Nc4nccn5nccc45)n[nH]3)C2)c1` (single isomer, unassigned) [Example 504], the IC50 lay in the range of 1000 to 100000 nM. In the case of `c1cncc(O[C@H]2CC[C@@H](c3cc(Nc4nccn5nccc45)n[nH]3)C2)c1` (single isomer, unassigned) [Example 505], the IC50 was not above 100 nM. Consider `COCc1cc(C(=O)Nc2cc([C@H]3CC[C@@H](Oc4ncccc4C(C)C)C3)[nH]n2)n(C)n1` (single isomer, unassigned) [Example 506], for which the IC50 is not above 100 nM. As for `COCc1cc(C(=O)Nc2cc([C@@H]3CC[C@H](Oc4ncccc4C(C)C)C3)[nH]n2)n(C)n1` (single isomer, unassigned) [Example 507], the IC50 is not above 100 nM. In the case of `COCc1cc(C(=O)Nc2cc([C@H]3CC[C@@H](Oc4nccnc4C(C)C)C3)[nH]n2)n(C)n1` (single isomer, unassigned) [Example 508] it was not above 100 nM; in that of `CCc1ccnnc1O[C@@H]1CC[C@H](c2cc(NC(=O)c3cc(COC)nn3C)n[nH]2)C1` (single isomer, unassigned) [Example 509], not above 100 nM. With `CCc1ccnnc1O[C@H]1CC[C@@H](c2cc(NC(=O)c3cc(COC)nn3C)n[nH]2)C1` (single isomer, unassigned) [Example 510], the IC50 is not above 100 nM. `COCc1cc2c(Nc3cc([C@H]4CC[C@@H](Oc5cccnc5C)C4)[nH]n3)nccn2n1` (single isomer, unassigned) [Example 511]: the IC50 lay in the range of 1000 to 100000 nM. The value for `COCc1cc2c(Nc3cc([C@@H]4CC[C@H](Oc5cccnc5C)C4)[nH]n3)nccn2n1` (single isomer, unassigned) [Example 512] was 100 to 250 nM; that for `COCc1cc2c(Nc3cc([C@H]4CC[C@@H](Oc5cccnc5)C4)[nH]n3)nccn2n1` (single isomer, unassigned) [Example 525] was 1000 to 100000 nM. As to `COCc1cc2c(Nc3cc([C@@H]4CC[C@H](Oc5cccnc5)C4)[nH]n3)nccn2n1` (single isomer, unassigned) [Example 526], the IC50 is 100 to 250 nM. On to `CC(C)NC(=O)O[C@@H]1CC[C@H](c2cc(Nc3ccc4c(n3)C(C)(C)NC4=O)n[nH]2)C1` (single isomer, unassigned) [Example 527], for which the IC50 is not above 100 nM.

Consider `CC(C)NC(=O)O[C@H]1CC[C@@H](c2cc(Nc3ccc4c(n3)C(C)(C)NC4=O)n[nH]2)C1` (single isomer, unassigned) [Example 528], for which the IC50 is not above 100 nM. With `CNC(=O)O[C@@H]1CC[C@H](c2cc(Nc3ccc4c(n3)C(C)(C)NC4=O)n[nH]2)C1` (single isomer, unassigned) [Example 529], the IC50 is not above 100 nM. Consider `CNC(=O)O[C@H]1CC[C@@H](c2cc(Nc3ccc4c(n3)C(C)(C)NC4=O)n[nH]2)C1` (single isomer, unassigned) [Example 530], for which the IC50 is not above 100 nM.

Regarding `COCc1cc(C(=O)Nc2cc([C@@H]3CC[C@H](Oc4nccnc4C(C)C)C3)[nH]n2)n(C)n1` (single isomer, unassigned) [Example 531], the IC50 is not above 100 nM. In the case of `COCc1cc(C(=O)Nc2cc([C@H]3CC[C@@H](Oc4nncc5cnccc45)C3)[nH]n2)n(C)n1` (single isomer, unassigned) [Example 534] it was not above 100 nM. Consider `COCc1cc(C(=O)Nc2cc([C@@H]3CC[C@H](Oc4nncc5cnccc45)C3)[nH]n2)n(C)n1` (single isomer, unassigned) [Example 535], for which the IC50 is 250 to 1000 nM. As for `COCc1cc(C(=O)Nc2cc([C@@H]3C[C@H](Oc4cnccc4C4CC4)CO3)[nH]n2)n(C)n1` (single isomer, unassigned) [Example 538], the IC50 is 1000 to 100000 nM. Take `COCc1cc(C(=O)Nc2cc([C@H]3C[C@@H](Oc4cnccc4C4CC4)CO3)[nH]n2)n(C)n1` (single isomer, unassigned) [Example 539]: the IC50 is 250 to 1000 nM. For the molecule `COCc1cc(C(=O)Nc2cc([C@H]3CC[C@@H](c4ccc(C)[nH]c4=O)C3)[nH]n2)n(C)n1` (single isomer, unassigned) [Example 542], the IC50 was in the range of 250 to 1000 nM. In the case of `COCc1cc(C(=O)Nc2cc([C@@H]3CC[C@H](c4ccc(C)[nH]c4=O)C3)[nH]n2)n(C)n1` (single isomer, unassigned) [Example 543] it was 1000 to 100000 nM. The value for `Cc1ncccc1O[C@@H]1CC[C@H](c2cc(Nc3ccc4c(c3)C(C)(C)NC4=O)n[nH]2)C1` (single isomer, unassigned) [Example 546] was not above 100 nM; that for `Cc1ncccc1O[C@H]1CC[C@@H](c2cc(Nc3ccc4c(c3)C(C)(C)NC4=O)n[nH]2)C1` (single isomer, unassigned) [Example 547] was not above 100 nM; that for `CC(C)NC(=O)O[C@@H]1CC[C@H](c2cc(Nc3ccc4c(c3)C(C)(C)NC4=O)n[nH]2)C1` (single isomer, unassigned) [Example 548] was not above 100 nM. The value for `CC(C)NC(=O)O[C@H]1CO[C@@H](c2cc(Nc3ccc4c(c3)C(C)(C)NC4=O)n[nH]2)C1` (single isomer, unassigned) [Example 549] was not above 100 nM; that for `COCc1cc(C(=O)Nc2cc([C@H]3CC[C@@H](Oc4nnccc4C4CCC4)C3)[nH]n2)n(C)n1` (single isomer, unassigned) [Example 550] was not above 100 nM. For the molecule `COCc1cc(C(=O)Nc2cc([C@@H]3CC[C@H](Oc4nnccc4C4CCC4)C3)[nH]n2)n(C)n1` (single isomer, unassigned) [Example 551], the IC50 is not above 100 nM.

With `COCc1cc(C(=O)Nc2cc([C@H]3CC[C@@H](c4ccc(C(C)C)cn4)C3)[nH]n2)n(C)n1` (single isomer, unassigned) [Example 552], the IC50 lay within 1000 to 100000 nM. For the molecule `COCc1cc(C(=O)Nc2cc([C@@H]3CC[C@H](c4ccc(C(C)C)cn4)C3)[nH]n2)n(C)n1` (single isomer, unassigned) [Example 553], the IC50 fell in the range of 1000 to 100000 nM. `COCc1cc(C(=O)Nc2cc([C@H]3CC[C@@H](Cc4ncc(C)s4)C3)[nH]n2)n(C)n1` (single isomer, unassigned) [Example 554]: the IC50 was 1000 to 100000 nM.

Turning to `COCc1cc(C(=O)Nc2cc([C@@H]3CC[C@H](Cc4ncc(C)s4)C3)[nH]n2)n(C)n1` (single isomer, unassigned) [Example 555], the IC50 lay within 250 to 1000 nM.

On to `COCc1cc(C(=O)Nc2cc([C@@H]3CC[C@@H](Cc4ncc(C)s4)C3)[nH]n2)n(C)n1` (single isomer, unassigned) [Example 556], for which the IC50 lay in the range of 1000 to 100000 nM. Consider `COCc1cc(C(=O)Nc2cc([C@H]3CC[C@H](Cc4ncc(C)s4)C3)[nH]n2)n(C)n1` (single isomer, unassigned) [Example 557], for which the IC50 lay within 1000 to 100000 nM. In the case of `CC(C)NC(=O)O[C@@H]1CC[C@H](c2cc(Nc3cncc(OCCO)n3)n[nH]2)C1` (single isomer, unassigned) [Example 563] it was not above 100 nM. In the case of `CC(C)NC(=O)O[C@H]1CC[C@@H](c2cc(Nc3cncc(OCCO)n3)n[nH]2)C1` (single isomer, unassigned) [Example 564], the IC50 is not above 100 nM. In the case of `CC1(C)NC(=O)c2ccc(Nc3cc([C@H]4CC[C@@H](Oc5cccnc5)C4)[nH]n3)cc21` (single isomer, unassigned) [Example 565] it was not above 100 nM. The value for `COCc1cc(C(=O)Nc2cc([C@H]3C[C@H](OC)[C@@H](OC(=O)NC(C)C)C3)[nH]n2)n(C)n1` (single isomer, unassigned) [Example 567] was 1000 to 100000 nM; that for `COCc1cc(C(=O)Nc2cc([C@@H]3C[C@@H](OC)[C@H](OC(=O)NC(C)C)C3)[nH]n2)n(C)n1` (single isomer, unassigned) [Example 568] was 1000 to 100000 nM. As to `COCc1cc(C(=O)Nc2cc([C@@H]3C[C@H](OC)[C@@H](OC(=O)NC(C)C)C3)[nH]n2)n(C)n1` (single isomer, unassigned) [Example 569], the IC50 fell in the range of 1000 to 100000 nM.

Turning to `COCc1cc(C(=O)Nc2cc([C@H]3C[C@@H](OC)[C@H](OC(=O)NC(C)C)C3)[nH]n2)n(C)n1` (single isomer, unassigned) [Example 570], the IC50 was in the range of 1000 to 100000 nM. In the case of `COCc1cc(C(=O)Nc2cc([C@H]3CC[C@@H](c4ccc(C)nn4)C3)[nH]n2)n(C)n1` (single isomer, unassigned) [Example 572], the IC50 lay in the range of 1000 to 100000 nM. The value for `COCc1cc(C(=O)Nc2cc([C@@H]3CC[C@H](c4ccc(C)nn4)C3)[nH]n2)n(C)n1` (single isomer, unassigned) [Example 573] was 1000 to 100000 nM; that for `COCc1cc(C(=O)Nc2cc([C@@H]3CC[C@@H](c4ccc(C)nn4)C3)[nH]n2)n(C)n1` (single isomer, unassigned) [Example 574] was 1000 to 100000 nM; that for `COCc1cc(C(=O)Nc2cc([C@H]3CC[C@H](c4ccc(C)nn4)C3)[nH]n2)n(C)n1` (single isomer, unassigned) [Example 575] was 1000 to 100000 nM. Turning to `COCc1cc(C(=O)Nc2cc([C@H]3CC[C@@H](c4cnc(C)cn4)C3)[nH]n2)n(C)n1` (single isomer, unassigned) [Example 576], the IC50 fell in the range of 1000 to 100000 nM. As for `COCc1cc(C(=O)Nc2cc([C@@H]3CC[C@H](c4cnc(C)cn4)C3)[nH]n2)n(C)n1` (single isomer, unassigned) [Example 577], the IC50 lay in the range of 1000 to 100000 nM. In the case of `COCc1cc(C(=O)Nc2cc([C@@H]3CC[C@@H](c4cnc(C)cn4)C3)[nH]n2)n(C)n1` (single isomer, unassigned) [Example 578], the IC50 lay in the range of 1000 to 100000 nM. For `COCc1cc(C(=O)Nc2cc([C@H]3CC[C@H](c4cnc(C)cn4)C3)[nH]n2)n(C)n1` (single isomer, unassigned) [Example 579], the IC50 was in the range of 1000 to 100000 nM. The value for `COCc1cc2c(Nc3cc([C@@H]4C[C@H](OC(=O)N5[C@@H](C)CC[C@@H]5C)CO4)[nH]n3)nccn2n1` (single isomer, unassigned) [Example 580] was not above 100 nM.

The values are drawn from patent US20240190855A1 (Relay Therapeutics, Inc., priority 2021, published 2024).
